Measurements taken from US5681842A, “Prostaglandin synthase-2 inhibitors” (Abbott Laboratories, priority 1996, dated 1997).

Key:
recombinant human PGHS-1 = target: T1, recombinant human PGHS-1 (Homo sapiens, UniProt P23219); experiment: Recombinant human PGHS-1 enzyme assay (PGE2 by EIA); type: biochemical; settings: 100 μM compound; microsomes, 60 min preincubation, 10 μM arachidonic acid; read-out: RHuPGHS-1 (% I @ 100μM)
T1 construct: made in house; host or cells: baculovirus/Sf9 insect cells (microsomes)
T1 sequence (P23219 24-599): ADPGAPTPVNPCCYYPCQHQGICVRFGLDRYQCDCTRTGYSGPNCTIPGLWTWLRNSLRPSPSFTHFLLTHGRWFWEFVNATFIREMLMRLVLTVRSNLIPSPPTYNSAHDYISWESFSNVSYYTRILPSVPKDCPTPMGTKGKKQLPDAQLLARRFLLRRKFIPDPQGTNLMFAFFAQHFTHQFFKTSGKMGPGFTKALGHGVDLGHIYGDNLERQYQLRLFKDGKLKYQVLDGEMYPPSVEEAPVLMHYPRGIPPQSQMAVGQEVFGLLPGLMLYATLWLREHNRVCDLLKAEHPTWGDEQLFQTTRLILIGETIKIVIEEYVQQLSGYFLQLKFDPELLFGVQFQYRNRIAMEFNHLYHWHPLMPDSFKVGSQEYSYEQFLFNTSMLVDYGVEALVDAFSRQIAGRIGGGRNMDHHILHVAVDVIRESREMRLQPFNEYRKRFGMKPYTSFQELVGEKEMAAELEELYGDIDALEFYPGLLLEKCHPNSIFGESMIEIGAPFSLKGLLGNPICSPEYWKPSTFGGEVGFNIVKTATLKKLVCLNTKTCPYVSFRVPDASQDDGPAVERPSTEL
Method: (§1) A compound of the invention dissolved in DMSO (3.3% v/v) was preincubated with microsomes from recombinant human PGHS-1 or PGHS-2 expressed in the baculovirus/Sf9 cell system (Gierse, J. K., Hauser, S. D., Greely, D. P., Koboldt, C., Rangwala, S., H., Isakson, P. C., and Seibert, K. "Expression and selective inhibition of the constitutive and inducible forms of cyclooxygenase", Biochem J. 305:479 (1995)), together with the cofactors phenol (2 mM) and hematin (1 μM) for 60 minutes prior to the addition of 10 μM arachidonic acid. The reaction was allowed to run for 2.5 minutes at room temperature prior to quenching with HCl and neutralization with NaOH. PGE2 production in the presence and absence of the drug was determined by EIA analysis.
(§2) EIA reagents for prostaglandin determination were purchased from Perseptive Diagnostics, Cambridge, Mass. PGE2 levels in lavage fluids were determined after the samples were dried under nitrogen and reconstituted with assay buffer. PGE2 levels in enzyme assays or cell culture media were measured against standards prepared in the same milieu. The immunoassays were conducted as recommended by the manufacturer. The EIA was conducted in 96 well microtiter plates (Nunc Roskilde, Denmark) and optical density measured using a microplate reader (Vmax, Molecular Devices Corp., Menlo Park, Calif.).

[1] = test system: prostaglandin production in the pleural cavity; experiment: Carrageenan induced pleurisy test (CIP); type: in vivo, Sprague-Dawley rats; settings: rats, 10 mg/kg oral, 30 minutes prior to intrapleural carrageenan; lavage four hours after
Method: as §2
Inhibition of carrageenan induced pleurisy in rats was determined essentially as described by F. B. De Brito, (Pleurisy and Pouch Models of Acute Inflammation in Pharmalogical Methods in the Control of Inflammation, Eds, J. Y. Chang and A. J. Lewis, Alan Liss Inc., New York: 173-194, 1989) and Vinegar et al. ("Quantitative studies of the pathway to acute carrageenan inflammation", Fed. Proc., 35:2447-2456 (1976)). Briefly, eight Sprague-Dawley rats were orally dosed with 10 mg/kg of a compound of the invention 30 minutes prior to intrapleural injection of 2% lambda carrageenan (Sigma Chemical Co., St. Louis Mo.). Four hours after carrageenan injection, the animals were euthanized and their pleural cavities lavaged with ice cold saline. The lavage fluid was then added to two volumes of ice cold methanol (final methanol concentration 66%) to lyse cells and precipitate protein. Prostaglandin levels in the methanol/lavage fluid were then determined by EIA.

recombinant human PGHS-2 = target: T2, recombinant human PGHS-2 (Homo sapiens, UniProt P35354); experiment: Recombinant human PGHS-2 enzyme assay (PGE2 by EIA); type: biochemical; settings: for inhibition at 0.1 µM: 100 nM compound, microsomes, 60 min preincubation, 10 μM arachidonic acid, read-out: RHuPGHS-2 (% I @ 100 nM)
T2 construct: made in house; host or cells: baculovirus/Sf9 insect cells (microsomes)
T2 sequence (P35354 18-604): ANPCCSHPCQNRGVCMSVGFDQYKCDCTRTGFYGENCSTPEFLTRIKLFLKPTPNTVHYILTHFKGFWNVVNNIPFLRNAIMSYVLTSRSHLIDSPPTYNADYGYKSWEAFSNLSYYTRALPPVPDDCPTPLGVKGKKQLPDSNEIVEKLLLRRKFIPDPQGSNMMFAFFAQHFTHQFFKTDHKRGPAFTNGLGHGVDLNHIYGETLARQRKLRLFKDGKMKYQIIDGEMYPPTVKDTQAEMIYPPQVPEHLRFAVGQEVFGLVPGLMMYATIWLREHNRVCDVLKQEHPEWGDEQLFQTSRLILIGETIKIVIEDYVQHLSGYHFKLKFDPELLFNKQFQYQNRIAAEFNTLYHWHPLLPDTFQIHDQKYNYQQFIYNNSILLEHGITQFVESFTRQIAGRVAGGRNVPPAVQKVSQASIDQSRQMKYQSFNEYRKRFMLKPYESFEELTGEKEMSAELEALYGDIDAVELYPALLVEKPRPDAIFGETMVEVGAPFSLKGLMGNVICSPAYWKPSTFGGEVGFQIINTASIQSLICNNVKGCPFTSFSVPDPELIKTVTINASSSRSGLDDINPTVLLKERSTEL
Method: as §1, §2

| Compound | inhibition at 100 µM (recombinant human PGHS-1) [%] | inhibition of prostaglandin production in the pleural cavity [1] [%] | inhibition at 0.1 µM (recombinant human PGHS-2) [%] | inhibitory potency against recombinant human PGHS-2 (in words) (recombinant human PGHS-2) |
| --- | --- | --- | --- | --- |
| CS(=O)(=O)Nc1ccc([N+](=O)[O-])cc1Oc1ccc2sccc2c1 [Example 3, N-(4-Nitro-2-(benzothiophen-5'-yloxy)phenyl)methanesulfonamide] | 89 | 48 | 59 |  |
| CS(=O)(=O)Nc1ccc([N+](=O)[O-])cc1Oc1ccc2c(c1)OCO2 [Example 5, N-(4-Nitro-2-(1,3-benzodioxol-6-yloxy)phenyl)methanesulfonamide] | 89 | 36 | 77 | most potent |
| CS(=O)(=O)Nc1ccc([N+](=O)[O-])cc1Oc1ccc2ccccc2c1 [Example 1, N(4-Nitro-2-(naphth-2'-yloxy)phenyl)methanesulfonamide] | 47 |  | 65 |  |
| CS(=O)(=O)Nc1ccc([N+](=O)[O-])cc1Oc1ccc2ncsc2c1 [Example 4] | 31 | 66 | 43 |  |
| CS(=O)(=O)Nc1ccc([N+](=O)[O-])cc1Oc1ccc2cc(F)ccc2c1 [Example 2, N-(4-Nitro-2-(6'-fluoro-naphth-2'-yloxy)phenyl)methanesulfonamide] | 26 | 20 | 56 |  |
